Measurements published in US6734181B2, “Pyrrolopyridazine compounds” (Sankyo Company, Limited, priority 2000, dated 2004).

Tests used:
gastric acid secretion = assay: Test for inhibition on gastric acid secretion in rats (pylorus ligation); assay type: in vivo; settings: pylorus-ligated rats, orally administered, four hours after ligation
Description: Test for Inhibition on Gastric Acid Secretion in Rats
After a group of rats was fasted overnight, they were subjected to midline abdominal incision and their pylorus was ligated under anesthesia with ether. The stomach and duodenum were returned to their original positions in the body, followed by closing at the abdominal incision part. A test compound (0.3 to 10 mg/ml) was suspended in an aqueous solution containing 0.5% of sodium carboxymethylcellulose and 0.4% of Tween 80 (trade mark). The resulting suspension (1 ml/kg of body weight) was orally administered to the rats through a stomach tube. Four hours after the ligation, the rats were sacrificed by inhalation of CO2 gas. They were subjected to abdominal incision to remove their stomach. The content of the stomach was collected in a glass-made graduated centrifuge tube. After centrifugation, the amount (ml) of the supernatant and the amount (ml) of the precipitate were measured. The precipitate of the amount exceeding 0.5 ml was regarded as feces and excluded from the data. The supernatant ([…]) was poured into a test tube. Distilled water (4 ml) was added to the solution, and the solution was titrated to pH 7.0 with 0.01 N sodium hydroxide. […] Each parameter was calculated in accordance with the following equations: […]

[1] = test system: Helicobacter pylori strains 9470, 9472 and 9474; assay: Antibacterial action against Helicobacter pylori (MIC, agar dilution); assay type: cell-based; settings: 72 h, 37° C., 3 days, microaerophilic conditions, read-out: MIC (Minimum Inhibitory Concentration)
Description: Antibacterial Action Against Helicobacter Pylori The antibacterial activity of the compound of the invention was evaluated by using Helicobacter pylori strains 9470, 9472 and 9474 and determining MIC (Minimum Inhibitory Concentration) of the compound of the invention against Helicobacter pylori. Helicobacter pylori was cultured by plating for 4 days. A medium was prepared by dissolving Brain Heart Infusion Agar (product of Difco Laboratories) in a prescribed amount of distilled water, sterilizing in an autoclave, adding equine blood (product of Nippon Seibutsu Zairyo) to give a concentration thereof of 7% and then solidifying the mixture. Under microaerophilic conditions, Helicobacter pylori which had been cultured at 37° C. for 4 days was suspended in physiological saline to give its viable count of about 10^8 CFU/ml. The suspension was then diluted to 100 times and a portion (about 10 μl) of the diluted suspension was inoculated in a medium for measuring MIC. The medium employed for measuring MIC has the same composition as the preculture medium. A compound of this invention was dissolved in dimethyl sulfoxide (DMSO) and two-fold serial dilutions were made with sterilized water. After mixing the solution and the medium in a ratio of 1:99, a solidified product in the Petri dish was employed as an MIC measuring medium. […]

[2] = target: T1, proton potassium-adenosine triphosphatase (H+.K+-ATPase) (Sus scrofa, UniProt P19156); assay: Test on activity of proton potassium-adenosine triphosphatase (H+.K+-ATPase); assay type: biochemical; settings: swine gastric mucosal microsomal fraction, pH 6.85, 37° C.; read-out: 50% inhibitory concentration (IC50) against proton potassium-adenosine triphosphatase (converted)
T1 construct: A microsomal fraction prepared in accordance with the method of Sachs, et al; from tissue; host or cells: swine gastric mucosa, microsomal fraction (density gradient ultracentrifugation)
Description: Test on Activity of Proton•potassium-adenosine Triphosphatase (H^+.K^+-ATPase) A microsomal fraction prepared in accordance with the method of Sachs, et al. [J. Bio. Chem., 251, 7690(1976)] by homogenizing a fresh gastric mucosal layer of swine and then subjecting the homogenate to density gradient ultra centrifugation was employed as a proton potassium-adenosine triphosphatase preparation. A solution (10 μl) of a test compound dissolved in dimethyl sulfoxide was added to 0.75 ml of a 70 mM tris hydrochloric acid buffer (5 mM magnesium chloride, 20 mM potassium chloride, pH=6.85) containing 30 to 80 μg/ml, in terms of the protein concentration, of the enzyme preparation. The mixture was incubated with 200 times/min of agitation at 37° C. for 45 minutes. The enzymatic reaction was started by adding 0.25 ml of an 8 mM solution of disodium adenosine triphosphate. After this enzymatic reaction was continued for 20 minutes, 1 ml of a 10% trichloroacetic acid—activated charcoal (100 mg) solution was added to terminate the reaction. […] The amount of inorganic phosphoric acid in a reaction mixture free from potassium chloride was also measured. By subtracting this amount from the amount of inorganic phosphoric acid in the presence of potassium chloride, protonpotassium-adenosine triphosphatase activity (H^+.K^+-ATPase) was determined. […]

T1 sequence (P19156 2-1034 limits assumed): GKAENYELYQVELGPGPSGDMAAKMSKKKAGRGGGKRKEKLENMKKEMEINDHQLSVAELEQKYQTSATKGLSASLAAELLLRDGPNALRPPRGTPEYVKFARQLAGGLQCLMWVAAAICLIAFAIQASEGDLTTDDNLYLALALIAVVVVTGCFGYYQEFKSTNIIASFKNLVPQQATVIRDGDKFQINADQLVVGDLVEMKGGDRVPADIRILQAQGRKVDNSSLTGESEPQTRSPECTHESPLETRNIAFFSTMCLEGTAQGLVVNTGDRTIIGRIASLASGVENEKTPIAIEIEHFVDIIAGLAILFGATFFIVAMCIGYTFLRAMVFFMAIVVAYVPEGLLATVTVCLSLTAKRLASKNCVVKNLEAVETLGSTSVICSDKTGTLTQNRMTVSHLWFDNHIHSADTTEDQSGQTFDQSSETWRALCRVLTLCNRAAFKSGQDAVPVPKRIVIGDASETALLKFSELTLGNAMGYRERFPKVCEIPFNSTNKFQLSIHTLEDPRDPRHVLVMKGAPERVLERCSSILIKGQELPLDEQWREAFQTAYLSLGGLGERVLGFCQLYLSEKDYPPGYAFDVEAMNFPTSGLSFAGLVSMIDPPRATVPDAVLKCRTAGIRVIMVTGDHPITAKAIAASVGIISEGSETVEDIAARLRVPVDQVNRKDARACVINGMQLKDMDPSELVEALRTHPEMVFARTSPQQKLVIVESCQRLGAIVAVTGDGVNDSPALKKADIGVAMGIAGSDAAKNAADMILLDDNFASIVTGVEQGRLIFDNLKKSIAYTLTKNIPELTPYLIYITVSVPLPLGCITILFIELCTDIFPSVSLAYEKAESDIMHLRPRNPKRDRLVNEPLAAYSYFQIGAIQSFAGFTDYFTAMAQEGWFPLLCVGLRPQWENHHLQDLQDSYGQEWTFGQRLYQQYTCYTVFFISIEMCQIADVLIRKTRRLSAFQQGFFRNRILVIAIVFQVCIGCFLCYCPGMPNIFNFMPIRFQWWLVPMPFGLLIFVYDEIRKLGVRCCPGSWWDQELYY
T1 sequence (P18434 whole entry partner): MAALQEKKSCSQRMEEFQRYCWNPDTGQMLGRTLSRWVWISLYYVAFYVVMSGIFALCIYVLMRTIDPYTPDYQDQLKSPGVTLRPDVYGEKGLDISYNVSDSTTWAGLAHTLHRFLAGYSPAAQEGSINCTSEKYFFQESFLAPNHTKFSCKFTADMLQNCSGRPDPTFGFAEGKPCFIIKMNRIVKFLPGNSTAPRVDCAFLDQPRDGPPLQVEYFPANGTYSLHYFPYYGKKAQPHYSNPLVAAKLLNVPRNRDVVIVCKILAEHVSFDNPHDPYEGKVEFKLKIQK

SMILES	melting point [°C]	50% inhibitory dose (ID50), gastric acid output (gastric acid secretion)	MIC [1] [µg/mL]	IC50 [2] [nM]
Cc1c(C=O)c2cnnc(OCc3ccc(F)cc3)c2n1C[C@H]1C[C@@H]1C	138.5 to 139.5	–	–	–
CC(=O)OCc1c(C)n(C[C@H]2C[C@@H]2C)c2c(OCc3ccc(F)cc3)nncc12 [Example 1, 3-Acetoxymethyl-7-(4-fluorobenzyloxy)-2-methyl-1-[(1S,2S)-2-methylcyclopropylmethyl]pyrrolo[2,3-d]-pyridazine]	122 to 123	–	–	–
Cc1c(CO)c2cnnc(OCc3ccc(F)cc3)c2n1C[C@H]1C[C@@H]1C [Example 2, 7-(4-Fluorobenzyloxy)-3-hydroxymethyl-2-methyl-1-[(1S,2S)-2-methylcyclopropylmethyl]pyrrolo[2,3-d]-pyridazine]	128 to 129	less than 10 mg/kg	< 12.5	42.2
